# Reference: ChEMBL document CHEMBL4052590, “Anti-Osteoporotic Activity of Harpagoside by Upregulation of the BMP2 and Wnt Signaling Pathways in Osteoblasts and Suppression of Differentiation in Osteoclasts” (J Nat Prod, 2017)
# Activity calls are given as the source filed them. No cut-off for these calls is given here.
# Experiments:
# Mus musculus [1] = test: Effect on calcium level in serum of OVX-induced bone loss ICR mouse model at 10 ug/kg, po via gavage for 12 weeks by ELISA (reference value: 9.3 +/- 0.3 mg/dl); format: functional
# Mus musculus [2] = test: Effect on […] level in serum of OVX-induced bone loss ICR mouse model at 10 ug/kg, po via gavage for 12 weeks by ELISA (reference value: 8.2 +/- 0.4 mg/dl); format: functional
# Mus musculus [3] = test: Effect on alkaline phosphatase activity in serum of OVX-induced bone loss ICR mouse model at 10 ug/kg, po via gavage for 12 weeks using p-NPP as substrate (reference value: 84.9 +/- 4.2 U/L); format: functional
# Mus musculus [4] = test: Effect on TRAP activity in serum of OVX-induced bone loss ICR mouse model at 10 ug/kg, po via gavage for 12 weeks (reference value: 19.8 +/- 1.0 U/L); format: functional
# Mus musculus [5] = test: Effect on osteocalcin level in serum of OVX-induced bone loss ICR mouse model at 10 ug/kg, po via gavage for 12 weeks by ELISA (reference value: 176.9 +/- 4.7 ng/ml); format: functional
# Mus musculus [6] = test: Effect on C-terminal telopeptide level in serum of OVX-induced bone loss ICR mouse model at 10 ug/kg, po via gavage for 12 weeks by ELISA (reference value: 95.7 +/- 3.8 ng/ml); format: functional
# Mus musculus [7] = test: Anti-osteoporotic activity in OVX-induced bone loss ICR mouse model assessed as decrease in trabecular bone destruction in femur at 10 ug/kg, po administered for 12 weeks via gavage by microcomputed tomography; format: functional, organism-based
compound,measurement,setting,value
C[C@]12CC[C@@H]3c4ccc(O)cc4CC[C@H]3[C@@H]1CC[C@@H]2O [ESTRADIOL],Activity,Mus musculus [1],9.1 mg/dL
same,Activity,Mus musculus [2],7.9 mg/dL
same,Activity,Mus musculus [3],59.9 U/L
same,Activity,Mus musculus [4],10.8 U/L
same,Activity,Mus musculus [5],141.9 ng/mL
same,Activity,Mus musculus [6],76.6 ng/mL
same,Activity,Mus musculus [7],Active
